Results from PubChem BioAssay (NCI).
“And” between values parts separate entries of the source, which are not always exact repeats. Equal values may be shown once.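 Assay format: 96-well plates, 48-hour exposure. At the GI50, growth is halved. The concentration for full growth arrest is given as TGI.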

Tests used:
Test in all cases: growth of human tumour cells (NCI), 48 h
SNB-75 CNS = tested on: SNB-75 CNS
NCI-H460 lung = tested on: NCI-H460 lung
RPMI-8226 leukemia = tested on: RPMI-8226 leukemia
HCT-15 colon = tested on: HCT-15 colon
HL-60(TB) leukemia = tested on: HL-60(TB) leukemia
SW-620 colon = tested on: SW-620 colon
M14 melanoma = tested on: M14 melanoma
OVCAR-3 ovarian = tested on: OVCAR-3 ovarian
SK-MEL-28 melanoma = tested on: SK-MEL-28 melanoma
HS 578T breast = tested on: HS 578T breast

SMILES	TGI (SNB-75 CNS)	TGI (NCI-H460 lung)	TGI (RPMI-8226 leukemia)	TGI (HCT-15 colon)	TGI (HL-60(TB) leukemia)	TGI (SW-620 colon)	TGI (M14 melanoma)	TGI (OVCAR-3 ovarian)	TGI (SK-MEL-28 melanoma)	GI50 (SNB-75 CNS)	GI50 (NCI-H460 lung)	GI50 (RPMI-8226 leukemia)	GI50 (SK-MEL-28 melanoma)	GI50 (HCT-15 colon)	GI50 (SW-620 colon)	GI50 (M14 melanoma)	GI50 (OVCAR-3 ovarian)	GI50 (HL-60(TB) leukemia)	GI50 (HS 578T breast)	TGI (HS 578T breast)
ClC/C=C/COC1CCCCO1 (stereo unspecified)	> 100 µM	> 100 µM	> 100 µM	> 100 µM	51.4 µM	> 100 µM	> 100 µM	> 100 µM	–	–	–	–	–	–	–	–	–	–	–	–
O=C1C=CC=C/C1=C1/SC(c2ccccc2)=C(O)N1c1ccccc1	> 100 µM	–	–	> 100 µM	–	> 100 µM	–	> 100 µM	> 100 µM	–	–	–	–	–	–	–	–	–	–	–
C[CH2][Ge]([CH2]C)([CH2]C)[O]C(=O)C(OC(C)=O)c1ccccc1 (stereo unspecified)	> 100 µM	> 100 µM	> 100 µM	> 100 µM	–	> 100 µM	> 100 µM	> 100 µM	> 100 µM	> 100 µM	> 100 µM	31 µM	> 100 µM	> 100 µM	> 100 µM	> 100 µM	> 100 µM	–	–	–
CC1/C(=N\O)CC(c2ccccc2)N(C)C1c1ccccc1 (stereo unspecified)	> 100 µM	> 100 µM	–	> 100 µM	> 100 µM	> 100 µM	> 100 µM	> 100 µM	> 100 µM	–	–	–	–	–	–	–	–	–	–	–
O=C([CH-]C(=O)c1ccccc1)c1ccccc1.[CH-]1CCCCC1.[CH-]1CCCCC1.[CH-]1CCCCC1.[Sn+4]	21.3 µM	–	5.22 µM	18.4 µM	6.59 µM	9.72 µM	22.4 µM	19.8 µM	–	7.09 µM	8.88 µM	2.32 µM	–	5.67 µM	3 µM	8.3 µM	5.89 µM	2.28 µM	–	–
CCOC(=O)c1cc2c(cc1Cl)SC(=Nc1ccccc1)N(S(=O)(=O)c1ccc(Cl)cc1)S2(=O)=O	> 100 µM	46.7 µM	19.4 µM	21.9 µM	–	32.6 µM	26 µM	26.3 µM	74.6 µM	38.2 µM	18.8 µM	4.26 µM	21.6 µM	6.52 µM	14.6 µM	11.2 µM	12.2 µM	–	17 µM	52.9 µM
O=C1CC(c2ccccc2)=Nc2ccccc2N1	> 100 µM	> 100 µM	–	> 100 µM	> 100 µM	51.8 µM	> 100 µM	> 100 µM	> 100 µM	–	–	–	–	–	–	–	–	–	–	–
CCOP(=O)(OCC)C1CCCOC1=O (stereo unspecified)	> 100 µM	> 100 µM	> 100 µM	> 100 µM	> 100 µM	> 100 µM	> 100 µM	> 100 µM	> 100 µM	–	–	–	–	–	–	–	–	–	–	–
CCOC(=O)/C(=C/c1ccc(C(=O)OC)cc1)N(CC)CC	–	–	> 100 µM	> 100 µM	69.4 µM	> 100 µM	> 100 µM	60 µM	> 100 µM	–	–	–	–	–	–	–	–	–	–	–
Cc1cccc(C)c1NC(=O)C1=NC(=S)NC(c2ccccc2)C1c1nc2ccccc2s1 (stereo unspecified)	> 100 µM	> 100 µM	–	–	> 100 µM	> 100 µM	> 100 µM	> 100 µM	> 100 µM	–	–	–	–	–	–	–	–	–	–	–
O=c1[nH]c2ccccc2nc1/C=C(\O)c1ccccc1O	> 100 µM	> 100 µM	> 100 µM	> 100 µM	> 100 µM	> 100 µM	> 100 µM	> 100 µM	> 100 µM	–	–	–	–	–	–	–	–	–	–	–
C[N+](C)(C)CC(=O)N/N=C(/C(=O)Nc1ccc(Br)cc1)C1C(=O)NC(=O)NC1=O	> 100 µM	> 100 µM	> 100 µM	> 100 µM	> 100 µM	> 100 µM	> 100 µM	> 100 µM	> 100 µM	–	–	–	–	–	–	–	–	–	–	–
Cc1csc2[n+]1-c1ccccc1N(C(=O)Nc1ccccc1)C(C)C2 (stereo unspecified)	–	> 100 µM	> 100 µM	> 100 µM	–	> 100 µM	> 100 µM	> 100 µM	> 100 µM	–	81 µM	67.5 µM	> 100 µM	> 100 µM	41 µM	43.7 µM	> 100 µM	–	> 100 µM	> 100 µM
O=C(CC1OC(O)C(Cl)=C1Cl)c1cccnc1 (stereo unspecified)	> 100 µM	> 100 µM	> 60.8 µM	> 56.8 µM	> 100 µM	> 33.9 µM	> 100 µM	> 100 µM	> 100 µM	–	–	–	–	–	–	–	–	–	–	–
COc1ccc(/C(COc2ccc3oc(-c4ccccc4)cc(=O)c3c2)=N\O)cc1	23.2 µM	> 16.3 µM	20 µM	–	> 23.2 µM	> 50 µM	> 50 µM	0.0538 µM	5.13 µM	1.3 µM	0.0882 µM	0.196 µM	0.65 µM	0.0264 µM	0.382 µM	0.321 µM	< 0.005 µM	–	–	–
CN(C)CCNC(=O)c1cccc2cc3c(Cl)cccc3nc12	8.37 µM	–	14.2 µM	6.37 µM	–	6.17 µM	–	4.9 µM	5.4 µM	–	–	–	–	–	–	–	–	–	–	–
COCN1COCN=C1NC#N	> 100 µM	> 100 µM	> 100 µM	> 100 µM	> 100 µM	66.8 µM	> 100 µM	> 100 µM	> 100 µM	–	–	–	–	–	–	–	–	–	–	–
C=C/C=C/[C@@H](O)CC(=C)C[C@H]1OC2[C@H](C)[C@@H](OC(=O)C[C@H]3C[C@H](OC(C)=O)C[C@@]4(C[C@@](C)(O)C[C@H](CC(=C)[C@@H](C)[C@H](OC(C)=O)[C@H](C)C(=O)C[C@@H]5C[C@H](OC)CC6(C[C@@H](O)C[C@H](/C=C\CCC[C@H]7O[C@](O)(C=C[C@H]7C)[C@H]2O)O6)O5)O4)O3)[C@@H]1O	> 25 µM	0.00529 µM	0.0821 µM	> 9.46 µM	–	> 25 µM	0.00709 µM	< 0.0025 µM	> 25 µM	> 25 µM	0.000798 µM and 0.0025 µM	0.0025 µM	–	0.00619 µM and 0.0025 µM	0.00123 µM and 0.0025 µM	–	< 0.0025 µM	–	0.00177 µM	0.0082 µM
CC1=C(C(=O)Nc2ccccc2)C(c2cccc3ccccc23)C(C(=O)Nc2ccccc2)=C(C)N1	47.7 µM	–	–	30.5 µM	40 µM	55.1 µM	32.5 µM	26.4 µM	34.7 µM	–	–	–	–	–	–	–	–	–	–	–
COC(=O)c1ccc(CN2C(=O)C(Cl)=C(Nc3cccc(Cl)c3C)C2=O)cc1	95 µM	> 100 µM	48.2 µM	78.9 µM	–	26.4 µM	> 100 µM	70.3 µM	> 100 µM	14.8 µM	34.5 µM	3.76 µM	15.2 µM	28.4 µM	3.45 µM	4.01 µM	20.2 µM	–	21 µM	95.5 µM
